According to patent US20030091978A1, “Assay for glucocorticoid receptor signalling pathway” (priority 2000, published 2003):
Each block holds one compound with its values, some of them ahead of it.

Experiments:
Assay type in all cases: cell-based
[1] = system: GRE-mediated gene transcription; test: A549-GRE-Renilla luciferase reporter assay; conditions: A549-GRE-Renilla cells
Description: A synthetic GR responsive promoter consisting of three copies of the consensus glucocorticoid responsive element (GRE) (AGAACAnnnTGTACC) linked to a minimal herpes simplex thymidine kinase (HSV-TK) promoter was derived from the pGRE-SEAP plasmid purchased from Clontech. This was placed upstream of the Renilla luciferase reporter gene, contained in the pRLNull vector (Promega), to create the reporter construct p3GRE-renilla. The GRE containing promoter together with the renilla luciferase gene were then subcloned into the pcDNA3 vector, deleted of the CMV promoter, in order to generate the construct p3GRE-renilla-neo.
(§1) A549 cells were maintained in 5% CO2 at 37° C. in DMEM containing 10% foetal calf serum and 2 mM L-glutamine. Cells were stably transfected with p5NFkB-firefly-neo, p3GRE-renilla-neo or pAPI-firefly-neo using electroporation procedure. […] These cell lines were maintained in DMEM containing 10% foetal calf serum, 2 mM L-glutamine and 1 mg/ml G418.
(§2) Cells were plated into individual wells of a white 96-well viewplate at a cell density of 4×10^4/well in 100 μl of growth medium.
This cell line will provide a means of measuring direct effects of glucocorticoid receptor agonists on GRE-mediated gene transcription.

[2] = system: AP-1 driven firefly-luciferase activity; test: A549-AP1-firefly luciferase reporter assay; conditions: A549-AP1-firefly cells, stimulation with 10 ng/ml EGF
Description: Similarly the minimal region of the Interleukin-2 promoter containing 4 AP-1 binding sites was cloned upstream of the firefly luciferase gene to generate pAP1-firefly-neo
as §1, §2
This cell line can therefore be used to monitor the repression of AP-1 signalling by glucocorticoid receptor ligands.

[3] = system: NFkB driven firefly luciferase activity; test: A549-NFkB-firefly luciferase reporter assay (FireLITE); conditions: A549-NFkB-firefly cells, stimulation with 0.5 ng/ml TNFα
Description: The firefly luciferase gene driven by a promoter containing five copies of the nuclear factor kB consensus sequence (GGGGACTTTCC) was derived from the pNF-kB-Luc plasmid, purchased from Stratagene, and subcloned into the pcDNA3 vector, deleted of the CMV promoter, in order to generate the construct p5NFkB-firefly-neo.
as §1, §2
The individual cell clones were first characterised for responsiveness in isolation.

Compound: C[C@@H]1C[C@H]2[C@@H]3CCC4=CC(=O)C=C[C@]4(C)[C@@]3(F)[C@@H](O)C[C@]2(C)[C@@]1(O)C(=O)CO [dexamethasone]
maximal stimulation above basal of renilla luciferase activity [1]: 3 fold

increase in expression of firefly luciferase [2]: 2.4 fold
Compound: EGF: stimulatory factor used to activate AP-1 driven transcription

increase in firefly luciferase activity [3]: 4.2 fold
Compound: TNFα
